Test results reported in US20250326744A1, “PIPERAZINE DERIVATIVE OR SALT THEREOF, AND PHARMACEUTICAL COMPOSITION” (priority 2022, published 2025).
Counter-ions that a name gives are not always drawn.

Key:
S-3769 strain = experiment: Combinational effect with antibacterial agent against Pseudomonas aeruginosa (Test Examples 2 and 4): S-3769 strain with AMK or GM at 1/4 MIC, EC99; assay type: cell-based; conditions: for EC99, S-3769 strain, AMK / EC99, S-3769 strain, GM: Table 52, Test Example 2, 16 to 20 hours culture, OD595; for EC99, S-3769 strain, AMK / EC99, combinational effect with AMK, S-3769 strain: combined with AMK at 1/4 MIC; for EC99, S-3769 strain, GM / EC99, combinational effect with GM, S-3769 strain: combined with GM at 1/4 MIC; for EC99, combinational effect with AMK, S-3769 strain / EC99, combinational effect with GM, S-3769 strain: Test Example 4
Outline: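 EC99, the lowest test-compound concentration inhibiting growth by ≥99% (OD595), was measured with aminoglycoside AMK or GM held at ¼ MIC. Strain S-3769, a MexY-overexpressing clinical isolate, was cultured in CAMHB at 10^4 to 5 CFU/well for 16–20 h; compound range 0–800 μM.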

mexB (PA) strain = experiment: Combinational effect with antibacterial agent against Pseudomonas aeruginosa (Test Examples 2 and 4): mexB (PA) strain with LVFX, TC or AZT at 1/4 MIC, EC99; assay type: cell-based; conditions: for EC99, mexB (PA), AZT / EC99, mexB (PA), TC / EC99, mexB (PA), LVFX: Table 52, Test Example 2, 16 to 20 hours culture, OD595; for EC99, mexB (PA), AZT / EC99, combinational effect with AZT, mexB (PA): combined with AZT at 1/4 MIC; for EC99, mexB (PA), TC / EC99, combinational effect with TC, mexB (PA): combined with TC at 1/4 MIC; for EC99, mexB (PA), LVFX / EC99, combinational effect with LVFX, mexB (PA): combined with LVFX at 1/4 MIC; for EC99, combinational effect with AZT, mexB (PA) / EC99, combinational effect with LVFX, mexB (PA) / EC99, combinational effect with TC, mexB (PA): mexB (PA) strain, Test Example 4
Outline: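 EC99 denotes the minimum test-compound concentration (range 0–800 μM) that suppresses ≥99% of growth, measured by OD595, when combined with ¼ MIC levofloxacin (LVFX), tetracycline or aztreonam. The efflux-pump mutant mexB (PA), expressing mainly MexAB-OprM, was inoculated at 10^4–5 CFU/well in CAMHB for 16–20 h.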

Row | Compound | EC99, S-3769 strain, AMK (S-3769 strain) | EC99, S-3769 strain, GM (S-3769 strain) | EC99, mexB (PA), AZT (mexB (PA) strain) | EC99, mexB (PA), TC (mexB (PA) strain) | EC99, mexB (PA), LVFX (mexB (PA) strain) | EC99, combinational effect with AMK, S-3769 strain (S-3769 strain) | EC99, combinational effect with GM, S-3769 strain (S-3769 strain) | EC99, combinational effect with AZT, mexB (PA) (mexB (PA) strain) | EC99, combinational effect with LVFX, mexB (PA) (mexB (PA) strain) | EC99, combinational effect with TC, mexB (PA) (mexB (PA) strain)
1 | CCOc1cccc(F)c1CN1CCN(C(=O)CN2CCC(CCc3ccccc3)(CNCCN)CC2)CC1 [Example 426, hydrochloride of 2-(4-(((2-aminoethyl)amino)methyl)-4-phenethylpiperidin-1-yl)-1-(4-(2-ethoxy-6-fluorobenzyl)piperazin-1-yl)ethan-1-one] | B (25 μM<EC99≤100 μM) | B (25 μM<EC99≤100 μM) | B (25 μM<EC99≤100 μM) | B (25 μM<EC99≤100 μM) | – | – | – | – | – | –
2 | CCOc1cccc(F)c1CN1CCN(C(=O)[C@H](N)C2CCN(CCc3cc(Cl)ccc3-c3ccccc3)CC2)CC1 [Example 137, (R)-2-amino-2-(1-(2-(4-chloro-[1,1′-biphenyl]-2-yl)ethyl)piperidin-4-yl)-1-(4-(2-ethoxy-6-fluorobenzyl)piperazin-1-yl)ethan-1-one] | S (EC99≤12.5 μM) | S (EC99≤12.5 μM) | S (EC99≤12.5 μM) | A (12.5 μM<EC99≤25 μM) | A (12.5 μM<EC99≤25 μM) | – | – | – | – | –
3 | CCOc1cccc(F)c1CN1CCN(C(=O)[C@H](N)C2CCN(CCc3cc(Cl)ccc3-c3cc(O)ccc3F)CC2)CC1 [Example 585, (R)-2-amino-2-(1-(2-(4-chloro-2′-fluoro-5′-hydroxy-[1,1′-biphenyl]-2-yl)ethyl)piperidin-4-yl)-1-(4-(2-ethoxy-6-fluorobenzyl)piperazin-1-yl)ethan-1-one] | – | – | – | – | – | S (EC99≤12.5 μM) | S (EC99≤12.5 μM) | S (EC99≤12.5 μM) | S (EC99≤12.5 μM) | S (EC99≤12.5 μM)
4 | N[C@@H](C(=O)N1CCN(Cc2cccc3c2OCC3)CC1)C1CCN(CCc2cc(Cl)ccc2-c2ccccc2)CC1 [Example 38, Hydrobromide of (R)-2-amino-2-(1-(2-(4-chloro-[1,1′-biphenyl]-2-yl)ethyl)piperidin-4-yl)-1-(4-((2,3-dihydrobenzofuran-7-yl)methyl)piperazin-1-yl)ethan-1-one] | A (12.5 μM<EC99≤25 μM) | A (12.5 μM<EC99≤25 μM) | A (12.5 μM<EC99≤25 μM) | B (25 μM<EC99≤100 μM) | C (100 μM<EC99) | – | – | – | – | –
5 | CCOc1cccc(F)c1CN1CCN(C(=O)[C@H](N)C2CCN(CCc3cc(Cl)ccc3-c3ccccc3F)CC2)CC1 [Example 139, hydrochloride of (R)-2-amino-2-(1-(2-(4-chloro-2′-fluoro-[1,1′-biphenyl]-2-yl)ethyl)piperidin-4-yl)-1-(4-(2-ethoxy-6-fluorobenzyl)piperazin-1-yl)ethan-1-one] | S (EC99≤12.5 μM) | S (EC99≤12.5 μM) | A (12.5 μM<EC99≤25 μM) | A (12.5 μM<EC99≤25 μM) | A (12.5 μM<EC99≤25 μM) | – | – | – | – | –
6 | CCOc1cccc(F)c1CN1CCN(C(=O)[C@H](N)C2CCN(CCc3cc(Cl)ccc3-c3ccccc3Cl)CC2)CC1 [Example 44, (R)-2-amino-2-(1-(2-(2′,4-dichloro-[1,1′-biphenyl]-2-yl)ethyl)piperidin-4-yl)-1-(4-(2-ethoxy-6-fluorobenzyl)piperazin-1-yl)ethan-1-one] | S (EC99≤12.5 μM) | S (EC99≤12.5 μM) | S (EC99≤12.5 μM) | S (EC99≤12.5 μM) | A (12.5 μM<EC99≤25 μM) | – | – | – | – | –
7 | CSc1ccccc1CN1CCN(C(=O)[C@H](N)C2CCN(CCc3cc(Cl)ccc3-c3cc(O)ccc3Cl)CC2)CC1 [Example 618, (R)-2-amino-2-(1-(2-(2′,4-dichloro-5′-hydroxy-[1,1′-biphenyl]-2-yl)ethyl)piperidin-4-yl)-1-(4-(2-(methylthio)benzyl)piperazin-1-yl)ethan-1-one] | – | – | – | – | – | S (EC99≤12.5 μM) | S (EC99≤12.5 μM) | S (EC99≤12.5 μM) | S (EC99≤12.5 μM) | S (EC99≤12.5 μM)
8 | CCSc1cc(F)ccc1CN1CCN(C(=O)[C@H](N)C2CCN(CCc3cc(Cl)ccc3-c3cccc(NC)c3)CC2)CC1 [Example 607, Hydrochloride of (R)-2-amino-2-(1-(2-(4-chloro-3′-(methylamino)-[1,1-biphenyl]-2-yl)ethyl)piperidin-4-yl)-1-(4-(2-(ethylthio)-4-fluorobenzyl)piperazin-1-yl)ethan-1-one] | – | – | – | – | – | B (25 μM<EC99≤100 μM) | B (25 μM<EC99≤100 μM) | S (EC99≤12.5 μM) | S (EC99≤12.5 μM) | S (EC99≤12.5 μM)
9 | CCSc1cc(F)ccc1CN1CCN(C(=O)[C@H](N)C2CCN(CCc3cc(Cl)ccc3-c3ccccc3)CC2)CC1 [Example 30, (R)-2-amino-2-(1-(2-(4-chloro-[1,1′-biphenyl]-2-yl)ethyl)piperidin-4-yl)-1-(4-(2-(ethylthio)-4-fluorobenzyl)piperazin-1-yl)ethan-1-one] | S (EC99≤12.5 μM) | S (EC99≤12.5 μM) | S (EC99≤12.5 μM) | S (EC99≤12.5 μM) | S (EC99≤12.5 μM) | – | – | – | – | –
10 | CCOc1cccc(F)c1CN1CCN(C(=O)[C@H](N)C2CCN(CCc3cc(Cl)ccc3-c3cc(N)ccc3Cl)CC2)CC1 [Example 560, Hydrobromide of (R)-2-amino-2-(1-(2-(5′-amino-2′,4-dichloro-[1,1-biphenyl]-2-yl)ethyl)piperidin-4-yl)-1-(4-(2-ethoxy-6-fluorobenzyl)piperazin-1-yl)ethan-1-one] | – | – | – | – | – | A (12.5 μM<EC99≤25 μM) | A (12.5 μM<EC99≤25 μM) | S (EC99≤12.5 μM) | S (EC99≤12.5 μM) | S (EC99≤12.5 μM)
11 | COc1cccc(NC(=O)C(C)(C)C)c1CN1CCN(C(=O)[C@H](N)C2CCN(CCc3cc(Cl)ccc3-c3ccccc3)CC2)CC1 [Example 527, Hydrobromide of (R)-N-(2-((4-(2-amino-2-(1-(2-(4-chloro-[1,1-biphenyl]-2-yl)ethyl)piperidin-4-yl)acetyl)piperazin-1-yl)methyl)-3-methoxyphenyl)pivalamide] | – | – | – | – | – | S (EC99≤12.5 μM) | S (EC99≤12.5 μM) | C (100 μM<EC99) | C (100 μM<EC99) | B (25 μM<EC99≤100 μM)
12 | CCSc1cc(F)ccc1CN1CCN(C(=O)[C@H](N)C2CCN(CCc3cscc3-c3ccccc3)CC2)CC1 [Example 608, Hydrochloride of (R)-2-amino-1-(4-(2-(ethylthio)-4-fluorobenzyl)piperazin-1-yl)-2-(1-(2-(4-phenylthiophen-3-yl)ethyl)piperidin-4-yl)ethan-1-one] | – | – | – | – | – | B (25 μM<EC99≤100 μM) | B (25 μM<EC99≤100 μM) | B (25 μM<EC99≤100 μM) | B (25 μM<EC99≤100 μM) | B (25 μM<EC99≤100 μM)
13 | CCSc1cc(F)ccc1CN1CCN(C(=O)[C@H](N)C2CCN(CCc3cc(Cl)ccc3-c3ccccc3O)CC2)CC1 [Example 594, Hydrochloride of (R)-2-amino-2-(1-(2-(4-chloro-2′-hydroxy-[1,1-biphenyl]-2-yl)ethyl)piperidin-4-yl)-1-(4-(2-(ethylthio)-4-fluorobenzyl)piperazin-1-yl) ethan-1-one] | – | – | – | – | – | S (EC99≤12.5 μM) | A (12.5 μM<EC99≤25 μM) | S (EC99≤12.5 μM) | A (12.5 μM<EC99≤25 μM) | S (EC99≤12.5 μM)
14 | CCOc1cccc(F)c1CN1CCN(C(=O)[C@H](N)C2CCN(CCc3cc(Cl)ccc3-c3ccc(F)cc3Cl)CC2)CC1 [Example 90, Hydrobromide of (R)-2-amino-2-(1-(2-(2′,4-dichloro-4′-fluoro-[1,1′-biphenyl]-2-yl)ethyl)piperidin-4-yl)-1-(4-(2-ethoxy-6-fluorobenzyl)piperazin-1-yl) ethan-1-one] | A (12.5 μM<EC99≤25 μM) | B (25 μM<EC99≤100 μM) | B (25 μM<EC99≤100 μM) | A (12.5 μM<EC99≤25 μM) | B (25 μM<EC99≤100 μM) | – | – | – | – | –
